# In patent US5686486A, “4-hydroxy-benzopyran-2-ones and 4-hydroxy-cycloalkyl[b]pyran-2-ones useful to treat retroviral infections” (priority 1995, dated 1997):
# Where two headings read alike, the source gives them in different places.
# Target: HIV-1 protease (Human immunodeficiency virus type 1 group M subtype B, UniProt P04585)
# Assay: biochemical
# Conditions: for inhibition at 0.123 µM: read-out: HIV-1 Protease % Inhib, dose 0.123 uM; for IC50: HIV-1 Protease IC50
# Outline: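 Biotinylated, FITC-labeled peptide substrate (20 μl of 0.2 μM) incubated with HIV-1 protease (10 μl of 0.1 μM) and compound in 0.1 M sodium acetate pH 5.5, 1.0 M NaCl, 0.05% NP-40, 1 h, room temperature, dark. Streptavidin beads then capture uncleaved substrate; filtered labeled product read by fluorescence, giving percent inhibition.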
# [1] = read-out: HIV-1 Protease % Inhib, dose 1.000 uM
# [2] = read-out: HIV-1 Protease % Inhib, dose 10.000 uM
# [3] = read-out: HIV-1 Protease % Inhib, dose 100.000 uM
# [4] = read-out: HIV-1 Protease % Inhib, dose 0.370 uM
# [5] = read-out: HIV-1 Protease % Inhib, dose 1.100 uM
# [6] = read-out: HIV-1 Protease % Inhib, dose 3.300 uM
# [7] = read-out: HIV-1 Protease % Inhib, dose 30.000 uM
# [8] = dose 1.100 uM, read-out: HIV-1 Protease % Inhib
# [9] = dose 3.300 uM, read-out: HIV-1 Protease % Inhib
# [10] = dose 10.000 uM, read-out: HIV-1 Protease % Inhib
# [11] = dose 30.000 uM, read-out: HIV-1 Protease % Inhib
compound,measurement,setting,value
"CCC(c1ccccc1)c1c(O)c2ccc3ccccc3c2oc1=O (stereo not drawn) [Example 99, 2H-Naphtho[1,2-b]pyran-2-one, 4-hydroxy-3-(1-phenylpropyl)-]",inhibition at 1 µM,[1],< 10%
same,inhibition at 10 µM,[2],< 10%
same,inhibition at 100 µM,[3],43.3%
"CCC(CCc1ccccc1)c1c(O)c2ccccc2oc1=O (stereo not drawn) [Example 155, 3-(1-Ethyl-3-phenyl-propyl)4-hydroxy-chromen-2-one]",inhibition at 1 µM,[1],15.4%
same,inhibition at 10 µM,[2],74.9%
same,inhibition at 100 µM,[3],91.9%
"O=c1oc2c(c(O)c1C(c1cccc(NS(=O)(=O)c3cccc([N+](=O)[O-])c3)c1)C1CC1)CCCCCC2 (stereo not drawn) [Example 274, N-[3-[Cyclopropyl(5,6,7,8,9,10-hexahydro-4-hydroxy-2-oxo-2H-cycloocta[b]pyran-3-yl)methyl]phenyl]-3-nitro-benzenesulfonamide]",inhibition at 0.123 µM,,70%
same,inhibition at 0.37 µM,[4],88.2%
same,inhibition at 1.1 µM,[5],95.8%
same,inhibition at 3.3 µM,[6],98.8%
same,inhibition at 10 µM,[2],103%
same,inhibition at 30 µM,[7],105%
"CCC(c1cccc(NC(=O)C(C)NC(=O)OC(C)(C)C)c1)c1c(O)c2ccccc2oc1=O (stereo not drawn) [Example 60, Carbamic acid, [2-[[3-[1-(4-hydroxy-2-oxo-2H-1-benzopyran-3-yl)propyl]phenyl]amino]-1-methyl-2-oxoethyl]-, 1,1-dimethylethyl ester]",IC50,,1100 nM
same,inhibition at 1 µM,[1],31.5%
same,inhibition at 10 µM,[2],90.8%
same,inhibition at 100 µM,[3],117%
"CCC(c1ccccc1OC)c1c(O)c2ccccc2oc1=O (stereo not drawn) [Example 70, 3-(1'-(2-Methoxyphenyl)propyl)-4-hydroxycoumarin]",inhibition at 1 µM,[1],< 10%
same,inhibition at 10 µM,[2],10.2%
same,inhibition at 100 µM,[3],72.2%
"CCC(c1ccccc1)c1c(O)c2c(oc1=O)CCCCCC2 (stereo not drawn) [Example 108, 5,6,7,8,9,10-Hexahydro-4-hydroxy-3-(1-phenylpropyl)-2H-cycloocta[b]pyran-2-one]",inhibition at 1 µM,[1],72.6%
same,inhibition at 10 µM,[2],95.5%
same,inhibition at 100 µM,[3],94.2%
"CCC(c1ccc(OC(C)=O)cc1)c1c(O)c2ccccc2oc1=O (stereo not drawn) [Example 72, 3-(1'-(4-Acetoxyphenyl)propyl)4-hydroxycoumarin]",inhibition at 1 µM,[1],< 10%
same,inhibition at 10 µM,[2],18.9%
same,inhibition at 100 µM,[3],92.3%
"CCC(c1cccc(OC)c1)c1c(O)c2ccccc2oc1=O (stereo not drawn) [Example 102, Coumarin, 4-hydroxy-3-[1-(3-methoxyphenyl)propyl]-]",HIV-1 Protease % Inhib,dose 100.000 uM,75.63%
same,inhibition at 1 µM,[1],< 10%
same,inhibition at 10 µM,[2],24%
same,inhibition at 100 µM,[3],78.8%
"O=c1oc2c(c(O)c1C(c1cccc(NS(=O)(=O)c3cccs3)c1)C1CC1)CCCCCC2 (stereo not drawn) [Example 323, N-[3-[Cyclopropyl(5,6,7,8,9,10-hexahydro-4-hydroxy-2-oxo-2H-cycloocta[b]pyran-3-yl)methyl]phenyl]-2-thiophenesulfonamide]",inhibition at 0.123 µM,,62.8%
same,inhibition at 0.37 µM,[4],91.8%
same,inhibition at 1.1 µM,[5],100%
same,inhibition at 3.3 µM,[6],104%
same,inhibition at 10 µM,[2],118%
same,inhibition at 30 µM,[7],112%
"O=c1oc2c(c(O)c1C(c1ccccc1)c1ccccc1)CCCCCC2 [Example 481, 3-(Diphenylmethyl)-5,6,7,8,9,10-hexahydro-4-hydroxy-2H-cycloocta[b]pyran-2-one]",inhibition at 0.37 µM,[4],118%
same,inhibition at 1.1 µM,[5],51.2%
same,inhibition at 3.3 µM,[6],85.3%
same,inhibition at 10 µM,[2],98%
same,inhibition at 30 µM,[7],107%
"CCC(c1cccc(NC(=O)CCSc2nc3ccccc3s2)c1)c1c(O)c2ccccc2oc1=O (stereo not drawn) [Example 65, Coumarin, 3-[1-[3-[[3-[(2-benzothiazolyl)thio]-1-oxopropyl]amino]phenyl]propyl]4-hydroxy-]",inhibition at 1 µM,[1],< 10%
same,inhibition at 10 µM,[2],48.4%
same,inhibition at 100 µM,[3],86.1%
"CS(=O)(=O)N(Cc1ccccc1)c1cccc(C(c2c(O)c3c(oc2=O)CCCCCC3)C2CC2)c1 (stereo not drawn) [Example 245, N-[3-[Cyclopropyl(5,6,7,8,9, 10-hexahydro-4-hydroxy-2-oxo-2H-cycloocta[b]pyran-3-yl)methyl]phenyl]-N-(phenylmethyl)-methanesulfonamide]",inhibition at 1.1 µM,[8],10.6%
same,inhibition at 3.3 µM,[9],50.9%
same,inhibition at 10 µM,[10],59.5%
same,inhibition at 30 µM,[11],78.6%
"CCC(c1ccccc1)c1c(O)c2ccc(OCCN3CCOCC3)cc2oc1=O (stereo not drawn) [Example 141, 4-Hydroxy-7-(2-morpholin-4-yl-ethoxy)-3-(1-phenyl-propyl)-chromen-2-one]",inhibition at 1 µM,[1],14.2%
same,inhibition at 10 µM,[2],77.4%
same,inhibition at 100 µM,[3],103%
"O=c1oc2ccccc2c(O)c1C(=Cc1ccccc1)c1ccccc1 [Example 21, 3-(1,2-Diphenylethenyl)4-hydroxycoumarin]",inhibition at 1 µM,"dose 1.000 uM, read-out: HIV-1 Protease % Inhib",< 10%
same,inhibition at 10 µM,[10],12.1%
same,inhibition at 100 µM,"dose 100.000 uM, read-out: HIV-1 Protease % Inhib",74.3%
"O=c1oc2ccccc2c(O)c1C1CCc2ccccc21 (stereo not drawn) [Example 35, 4-hydroxy-3-[1-indanyl]-coumarin]",IC50,,6800 nM
same,inhibition at 1 µM,[1],< 10%
same,inhibition at 10 µM,[2],19.6%
same,inhibition at 100 µM,[3],92.6%
"O=c1oc2ccccc2c(O)c1C1CCCc2ccccc21 (stereo not drawn) [Example 34, 4-hydroxy-3-[1-(1,2,3,4-tetrahydro)naphthyl]-coumarin]",IC50,,3600 nM
same,inhibition at 1 µM,[1],< 10%
same,inhibition at 10 µM,[2],50.3%
same,inhibition at 100 µM,[3],91.1%
"CCC(c1ccc(F)cc1)c1c(O)c2ccccc2oc1=O (stereo not drawn) [Example 36, Coumarin, 3-(α-ethyl-p-fluorobenzyl)4-hydroxy-]",inhibition at 1 µM,[1],< 10%
same,inhibition at 10 µM,[2],16.9%
same,inhibition at 100 µM,[3],81.6%
"CCCC(c1cccc(NC(=O)OCc2ccccc2)c1)c1c(O)c2c(oc1=O)CCCCCC2 (stereo not drawn) [Example 375, [3-[1-(5,6,7,8,9,10-Hexahydro-4-hydroxy-2-oxo-2H-cycloocta[b]pyran-3-yl)butyl]phenyl]-carbamic acid, phenylmethyl ester]",inhibition at 0.37 µM,"dose 0.370 uM, read-out: HIV-1 Protease % Inhib",10.2%
same,inhibition at 1.1 µM,[8],28.5%
same,inhibition at 3.3 µM,[9],57.4%
same,inhibition at 10 µM,[10],79%
same,inhibition at 30 µM,[11],86%
"O=c1oc2ccccc2c(O)c1C(CCc1ccccc1)Cc1ccccc1 (stereo not drawn) [Example 145, 3-(1-Benzyl-3-phenyl-propyl)4-hydroxy-chromen-2-one]",inhibition at 1 µM,[1],37%
same,inhibition at 10 µM,[2],81%
same,inhibition at 100 µM,[3],97%
"O=c1oc2c(c(O)c1C(c1cccc(N(Cc3ccccc3)S(=O)(=O)c3ccccc3)c1)C1CC1)CCCCCC2 (stereo not drawn) [Example 244, N-[3-[Cyclopropyl(5,6,7,8,9, 10-hexahydro-4-hydroxy-2-oxo-2H-cycloocta[b]pyran-3-yl)methyl]phenyl]-N-(phenylmethyl)-benzenesulfonamide]",inhibition at 10 µM,[10],18.8%
same,inhibition at 30 µM,[11],31.8%
"O=c1oc2c(c(O)c1C(c1cccc(NS(=O)(=O)c3c(Cl)cccc3Cl)c1)C1CC1)CCCCCC2 (stereo not drawn) [Example 295, 2,6-Dichloro-N-[3-[cyclopropyl(5,6,7,8,9,10-hexahydro-4-hydroxy-2'-oxo-2H-cycloocta[b]pyran-3-yl)methyl]phenyl]-benzenesulfonamide]",inhibition at 1.1 µM,[8],25.9%
same,inhibition at 3.3 µM,[9],57%
same,inhibition at 10 µM,[10],87.5%
same,inhibition at 30 µM,[11],100%
"COc1ccc2c(O)c(C(c3ccccc3)C3CC3)c(=O)oc2c1 (stereo not drawn) [Example 38, 3-cyclopropylphenylmethyl-4-hydroxy-7-methoxy coumarin]",IC50,,2800 nM
same,inhibition at 1 µM,[1],18.6%
same,inhibition at 10 µM,[2],83.2%
same,inhibition at 100 µM,[3],93.4%
"CC(C)CC(c1cccc(NS(=O)(=O)c2ccc(F)cc2)c1)c1c(O)c2c(oc1=O)CCCCCC2 (stereo not drawn) [Example 425, Benzenesulfonamide, N-[3-[1-(5,6,7,8,9,10-hexahydro-4-hydroxy-2-oxo-2H-cycloocta[b]pyran-3-yl)-3-methylbutyl]phenyl]-4-fluoro-]",inhibition at 0.123 µM,,97.4%
same,inhibition at 0.37 µM,[4],109%
same,inhibition at 1.1 µM,[5],101%
same,inhibition at 3.3 µM,[6],108%
same,inhibition at 10 µM,[2],98.5%
same,inhibition at 30 µM,[7],98.5%
"CC(C)C(c1cccc(NS(=O)(=O)c2cccc3cccnc23)c1)c1c(O)c2c(oc1=O)CCCCCC2 (stereo not drawn) [Example 416, 8-Quinolinesulfonamide, N-[3-[1-(5,6,7,8,9,10-hexahydro4-hydroxy-2-oxo-2H-cycloocta[b]pyran-3-yl)-2-methylpropyl]phenyl]-]",inhibition at 0.123 µM,,50.9%
same,inhibition at 0.37 µM,[4],88%
same,inhibition at 1.1 µM,[5],102%
same,inhibition at 3.3 µM,[6],99.7%
same,inhibition at 10 µM,[2],98.6%
same,inhibition at 30 µM,[7],97.8%
"O=c1oc2c(c(O)c1C(c1cccc(NS(=O)(=O)c3c(Cl)cc(Cl)cc3Cl)c1)C1CC1)CCCCCC2 (stereo not drawn) [Example 306, 2,4,6-Trichloro-N-[3-[cyclopropyl(5,6,7,8,9,10-hexahydro-4-hydroxy-2-oxo-2H-cycloocta[b]pyran-3-yl)methyl]phenyl]-benzenesulfonamide]",inhibition at 1.1 µM,[8],24.4%
same,inhibition at 3.3 µM,[9],53.2%
same,inhibition at 10 µM,[10],74.5%
same,inhibition at 30 µM,[11],86.2%
"CCC(c1cccc(NC(=O)CCNC(=O)OC(C)(C)C)c1)c1c(O)c2ccc(OC)cc2oc1=O (stereo not drawn) [Example 58, Coumarin, 4-hydroxy-3-[1-[3-[[3-[(1,1-dimethylethoxycarbonyl)amino]-1-oxopropyl]amino]phenyl]propyl]-7-methoxy-]",IC50,,1200 nM
same,inhibition at 1 µM,[1],36.3%
same,inhibition at 10 µM,[2],90.2%
same,inhibition at 100 µM,[3],108%
